Measured values taken from patent US20260327655A1, “SMALL-MOLECULE REGULATED ALTERNATIVE SPLICING” (priority 2023, published 2026).

How the values were obtained:
RS1-10 [1] = assay: Dose-response profiling assay, RS1-10 Flp-In-293 cell line; format: cell-based; conditions: 18 hours, FIGS. 9D-9F
Description: Single-copy insertion of an switch construct and subsequent cell-line generation was performed in Flp-In-293 cells according to manufacturer's protocols. The RS1-10 sequence fused to a Firefly Luciferase gene was cloned into a Flp-In compatible pcDNA5/FRT expression vector with a CMV promoter and BGH polyadenylation signal. Resulting Flp-In cell line carried a single-copy expression cassette (RSwitch-controlled) integrated into the genome. The RS1-10 Flp-In cell line was cultured in DMEM+10% FBS, collected after trypsinization, and then dispensed into 96-well plates (cell culture-treated). Each well of the plate was seeded with 1.0×10^5 cells in 100 μL culture medium. Subsequently, either DMSO vehicle or a splice modulator compound at specified doses was added to the wells of the plate. Triplicate wells were used for each condition tested in the experiment. Plates were then incubated for 18 hours in a tissue culture incubator (5% CO2, 37° C.). Endpoint analysis was performed by adding 100 uL of a Luciferase substrate, such as Steady-Luc Firefly Luciferase substrate, to each well of the assay plate. The liquid contents of each was transferred to a 96-well plate, mixed again for 2 min on an orbital shaker, and incubated at room temperature for 5 min. Finally, the luminescent signal from each well was measured with a plate reader. Each plotted data point on a graph in a figure represents a mean of 3 wells+/−standard deviation normalized to vehicle controls. A nonlinear regression curve fit of the plotted data points was generated in graphing software.

RS1-10 [2] = assay: In vivo mouse study of RS1-10 activation (AAV-PHP.eB, bioluminescent imaging); design: species or system C57BL/6 mice; conditions: 10 mg/kg single oral gavage
Description: C57BL/6 mice underwent tail vein injection of 3.00E+11 vector (depicted in FIG. 11A) genomes/mouse AAV vector composed of a genome containing a cloned human Synapsin promoter driving the expression of a Firefly Luciferase gene. Expression of the luciferase gene was gated by the RS1-10 switch. The AAV vector utilized a brain-penetrant AAV-PHP.eB capsid (FIG. 11A). At approximately 3 weeks after AAV delivery, mice were either dosed with compound vehicle or 10 mg/kg 24 A as a single oral gavage. 6 hours after the oral dosing, mice were intraperitoneally administered D-Luciferin (150 mg/kg), anesthetized, and imaged with a bioluminescent imaging (BLI) system to analyze activation of RS1-10. Light flux from expressed Firefly Luciferase was measured from the whole body of each mouse as radiance and a brightfield image was also taken as an anatomical reference (FIG. 11B). […]
C57BL/6 mice underwent tail vein injection of 3.00E+11 vector genomes/mouse AAV vector composed of a genome containing a cloned human Synapsin promoter driving the expression of a Firefly Luciferase gene. […] Light flux from expressed Firefly Luciferase was measured from the whole body of each mouse as radiance and a brightfield image was also taken as an anatomical reference. […]

## CCN1CC(c2ccc(-c3ccc(-c4ccc5nn(C)cc5c4)cc3O)nn2)C1 [Compound 24A, 2-[6-(1-ethylazetidin-3-yl)pyridazin-3-yl]-5-(2-methyl-2H-indazol-5-yl)phenol]
RS1-10 [1]
  fold-induction of luciferase signal, dose response: increase in fold-induction of luciferase signal with increasing concentrations
RS1-10 [2]; 6 hours post dose, ~3 weeks after AAV delivery, vs vehicle
  light flux from the heads of mice (bioluminescent imaging): Significant increases in light flux
RS1-10 [2]; 7 days post dose
  bioluminescent signal after drug washout: No significant signal was detected
